# System: LS411N human colorectal cancer cells
# Test: LS411N colorectal cancer xenograft: tumor growth inhibition, tumor growth delay and tumor regressions
# Type: in vivo, Balb/c-nude female mice
# Details: for TGI: Day 18, vs vehicle; for Median Time to 500 mm3: study cut-off Day 67; for Tumor regressions at day 67: animals with regression of n=10 mice/group; for T/C: median time to 500 mm3, treated vs vehicle; for Tumor growth delay: time to 500 mm3 vs vehicle
# Protocol: LS411N human colorectal cancer cells were maintained in RPMI-1640 cell culture medium supplemented with 10% fetal bovine serum at 37°C in an atmosphere of 5% CO2 in air. The cells in exponential growth phase were harvested and counted. Balb/c-nude female mice were inoculated subcutaneously at the right flank with 5x10^6 LS411N cells in 0.2 ml of PBS mixed with Matrigel (1:1) for tumor development. Six days after cell injection, animals having a tumor volume of about 200 mm^3 were randomized and allocated to 9 experimental groups (n=10 mice/group) for treatment with vehicle, compound of formula (II) at 13 mg/kg, compound of formula (II) at 20 mg/kg, tisotumab vedotin at 1 mg/kg, tisotumab vedotin at 4 mg/kg and the combinations of the two doses of compound of formula (II) with the two doses of tisotumab vedotin. Compound of formula (II) was administered intravenously every 4 days for 7 times (Days 0, 4, 8, 12, 16, 20 and 24) and tisotumab vedotin was administered intravenously once a week for two weeks (Days 0 and 7). On Day 0, tisotumab vedotin was given first and, after 1h, compound of formula (II) was administered).
# Effect of treatment on tumor growth and body weight was evaluated twice times per week. Tumors were measured in two dimensions using a caliper, and the tumor volume was expressed in mm^3 using the formula: V=(L x W2)/2, where V is tumor volume, L is tumor length (the longest tumor dimension) and W is tumor width (the longest tumor dimension perpendicular to L).
# From Day 18 onwards, some animals in the vehicle treated groups had to be euthanized due to tumors reaching the ethical endpoint (3000 mm^3), therefore tumor growth inhibition (TGI) for each treatment group was calculated on Day 18, when all the animals in the vehicle group were available for the calculation of the mean tumor volume.
# Figure 2 and Figure 3a and Figure 3b show the tumor growth curves of individual animals in each group and the Kaplan-Meier curves representing the time needed for tumors to reach/exceed 500 mm^3, respectively. Study cut-off Day 67.
# To better evaluate the combination benefit, tumor growth delay was evaluated as the time needed for tumors to reach/exceed a defined tumor volume (Table 2). The median time for tumors to reach 500 mm^3 was 7 days, 11 days, 14 days, 28 days and 37 days for vehicle, Compound of formula (II) 13 mg/kg, Compound of formula (II) 20 mg/kg, tisotumab vedotin 1 mg/kg and tisotumab vedotin 4 mg/kg single agent groups, respectively. All the combinations induced a strong tumor growth delay when compared to vehicle and single agent treated arms. The median time for tumors to reach 500 mm^3 in the combination at the lower doses of both agents, Compound of formula (II) 13 mg + tisotumab vedotin 1 mg/kg, was 65 days. For the other combination groups the median time for tumors to reach 500 mm^3 had not yet been reached at Day 67. The effect of the combination on tumor growth delay was more than additive for all the combination groups.
# [1] = Compound of formula (II) 13 mg/kg iv every 4 days x7
# [2] = Compound of formula (II) 13 mg/kg
# [3] = Compound of formula (II) 20 mg/kg iv every 4 days x7
# [4] = Compound of formula (II) 20 mg/kg
# [5] = tisotumab vedotin 1 mg/kg iv Days 0 and 7
# [6] = tisotumab vedotin 4 mg/kg iv Days 0 and 7
compound,measurement,setting,value
"CCc1cccc(CC)c1NC(=O)c1nn(C)c2c1CCc1cnc(Nc3ccc(N4CCC(N(C)C)CC4)cc3OC)nc1-2 [Compound of formula (II), N-(2,6-diethylphenyl)-8-({4-[4-(dimethylamino)piperidin-1-yl]-2-methoxyphenyl}-amino)-1-methyl-4,5-dihydro-1H-pyrazolo[4,3-h]quinazoline-3-carboxamide]",Mean Tumor Volume (mm^3) Day 18,[1],751 mm^3
same,TGI,"Compound of formula (II) 13 mg/kg iv every 4 days x7, 13 mg/kg",46.4%
same,Median Time to 500 mm3,[1],11 days
same,Tumor regressions at day 67,[2],0/10
same,T/C,[2],157%
same,Tumor growth delay,[2],4 days
same,Mean Tumor Volume (mm^3) Day 18,[3],655 mm^3
same,TGI,"Compound of formula (II) 20 mg/kg iv every 4 days x7, 20 mg/kg",52.6%
same,Median Time to 500 mm3,[3],14 days
same,Tumor regressions at day 67,[4],0/10
same,T/C,[4],200%
same,Tumor growth delay,[4],7 days
Tisotumab vedotin,control of tumor growth (individual tumor growth curves),[5],"controlled tumor growth initially, but between Days 14 and 20 all tumors started growing"
same,Mean Tumor Volume (mm^3) Day 18,[5],325 mm^3
same,TGI,[5],76.8%
same,Median Time to 500 mm3,[5],28 days
same,Tumor regressions at day 67,tisotumab vedotin 1 mg/kg,0/10
same,T/C,tisotumab vedotin 1 mg/kg,400%
same,Tumor growth delay,tisotumab vedotin 1 mg/kg,21 days
same,control of tumor growth (individual tumor growth curves),[6],"controlled tumor growth and induced tumor regressions initially, but after Day 20 tumors started to regrow as well"
same,Mean Tumor Volume (mm^3) Day 18,[6],147 mm^3
same,TGI,[6],89.5%
same,Median Time to 500 mm3,[6],37 days
same,Tumor regressions at day 67,tisotumab vedotin 4 mg/kg,0/10
same,T/C,tisotumab vedotin 4 mg/kg,529%
same,Tumor growth delay,tisotumab vedotin 4 mg/kg,30 days
